Data taken from publication PMC11648822, “Lactam Truncation Yields a Dihydroquinazolinone Scaffold with Potent Antimalarial Activity that Targets PfATP4” (Chemmedchem, 2024).
Values after ≈ are worked out from the molar mass of the structure shown. Like-named read-outs stand apart in the source and are kept apart here.

Legend:
Rat hepatocyte stability = format: in vitro ADME; settings: rat hepatocytes; read-out: Rat Hep CLint
Source text: (§1) Human liver microsome stability, rat hepatocyte stability, aqueous solubility and eLogD are platform assays conducted by TCG Lifesciences and undertaken using previously described protocols.[10]

[1] = tested on: P. falciparum Dd2 PfATP4^G358S strain; assay: PfATP4 drug resistant parasite viability assay (LDH), Dd2 G358S; format: cell-based; settings: for EC50: Plasmodium falciparum, DD2, 72 h, read-out: Dd2^G358S EC50 (SD)
Description: (§2) These assays were performed according to a previously described protocol.[16] Briefly, P. falciparum Dd2 strains treated with compound were incubated for 72 h at 37 °C. After incubating for 72 h, plates were frozen at −80 °C and then thawed at room temperature for at least 2 h. LDH activity, a surrogate for parasite growth was measured by the addition of the Malstst reagent mix, followed by incubation for 30 min and absorbance read using a ClarioStar Microplate reader at 650 nm. Values were normalized to DMSO control as a percentage and EC50 and dose response curves generated using GraphPad Prism.

P. falciparum Dd2 = assay: P. falciparum viability assay (SYBR green), Dd2; format: cell-based; settings: Plasmodium falciparum, DD2, 72 h, read-out: P. falciparum parental EC50 (SD) Dd2
Description: (§3) These assays were performed as previously described.[16] P. falciparum 3D7 parasites and resistant lines Dd2, W2mef, 7G8, and artemisinin‐resistant Cambodian isolate (Cam3.I (2539T)), and P. knowlesi YH1, were cultured in human O^+ erythrocytes (RBCs) (Australian Red Cross Blood Service), in RPMI‐HEPES culture medium (pH 7.4, 50 μg/mL hypoxanthine, 25 mM NaHCO3, 20 μg/mL gentamicin, 0.5 % Albumax II (GibcoBRL)) (Thermo Fisher Scientific) and maintained in an atmosphere of 1 % O2, 4 % CO2 and 95 % N2. Parasites were synchronised with 5 % (w/v) sorbitol (Sigma‐Aldrich) treatments for ring stages. Growth assays for measuring drug inhibition of in‐cycle, ring to schizont stage parasites have been described previously. Parasites were grown in 1 % haematocrit, at 1 % and 2 % parasitaemia for P. falciparum and P. knowlesi respectively. […] Parasitaemia was measured using a SYBR DNA staining assay on a fluorometer.[33] After the incubation period, supernatants were removed and well contents were resuspended in PBS.

[2] = tested on: P. falciparum Dd2 PfATP4^triple (I398F, P990R, D1247Y) strain; assay: PfATP4 drug resistant parasite viability assay (LDH), Dd2 triple; format: cell-based; settings: Plasmodium falciparum, DD2, 72 h, read-out: Dd2^triple EC50 (SD)
Description: as §2

[3] = tested on: P. falciparum 3D7 parasites; assay: P. falciparum viability assay (SYBR green), 3D7; format: cell-based; settings: Plasmodium falciparum, read-out: P. falciparum parental EC50 (SD) 3D7
Description: These assays were performed as previously described.[16] […] Parasites were synchronised with 5 % (w/v) sorbitol (Sigma‐Aldrich) treatments for ring stages. […] Parasites were grown in 1 % haematocrit, at 1 % and 2 % parasitaemia for P. falciparum and P. knowlesi respectively. […] Parasitaemia was measured using a SYBR DNA staining assay on a fluorometer.[33] After the incubation period, supernatants were removed and well contents were resuspended in PBS.

[4] = Human HepG2 cytotoxicity assay (Cell Titre Glo); format: cell-based; settings: HepG2 cells, growth inhibition at 48 h, 4 replicate experiments, read-out: HepG2 CC50 (SD)
Source text: This assay uses Cell TitreGlo as a metabolic maker for human HepG2 cell growth and uses a protocol previously described.[32]

P. falciparum W2^mef = assay: Multidrug-resistant parasite viability assay (SYBR green), W2mef; format: cell-based; settings: Plasmodium falciparum, W2, 72 h, read-out: multidrug resistant P. falciparum strains EC50 (SD) W2^mef
Description: as §3

[5] = tested on: P. falciparum Dd2 PfATP4^D425E strain; assay: 'compound 49' resistant parasite viability assay (LDH), Dd2 D425E; format: cell-based; settings: Plasmodium falciparum, DD2, 72 h, read-out: Dd2^D425E EC50 (SD)
Description: as §2

[6] = tested on: P. falciparum NF54 male gametes; assay: Dual gamete formation assay, male; format: cell-based; settings: Plasmodium falciparum; NF54 stage V gametocytes, 48 h incubation; exflagellation 20 min after induction
Description: PfATP4 inhibitors are known to block the transmission of parasites from humans to mosquitoes by interfering with both gametocytes and gamete development.[29] We evaluated a subset of truncated analogues against male and female gametes using a previously described assay. In this assay, stage V gametocytes are treated with compounds and then xanthurenic acid is added and a drop in temperature is used to simulate the mosquito gut environment to induce gametogenesis. After 30 min of compound treatment, male gamete viability is determined by microscopy measuring exflagellation, and after 24 h of compound treatment, female viability is measured using a female gamete specific αPfs25 antibody.
The compounds were evaluated as previously described.[34] Briefly, mature P. falciparum NF54 stage V gametocytes were exposed to compounds for 48 h at 37 °C in 384 well plates in gametocyte culture medium (RPMI 1640 supplemented with 25 mM HEPES, 50 μg mL^−1 hypoxanthine, 4.8 g L^−1 NaHCO3, 2 mM L‐glutamine, 5 % pooled type AB serum, 0.5 % Albumax II (Gibco)) under a 1 % O2/ 3 % CO2/ 96 % N2 environment. Gametogenesis was then triggered by the addition of 10 μL ookinete medium (gametocyte culture medium supplemented with 100 μM xanthurenic acid and 0.27 μg mL^−1 Cy3‐labelled anti‐Pfs25 antibody) to each well at room temperature. Plates were then cooled on a metal block at 4 °C for four min to ensure even cooling and then stabilised for a further 4 min at 28 °C. At 20 min post‐induction, male gametogenesis was recorded in each well by automated brightfield microscopy using a x4 objective lens and 1.5x magnifier (x6 effective magnification). Afterward, plates were incubated in the dark at room temperature for 24 h and then female gametogenesis was recorded in each well by automated fluorescence microscopy (anti‐Pfs25‐positive cells). […] All data was evaluated in comparison to the positive and negative controls to calculate percentage inhibition of male and female gametocytes, and dose response analysis and EC50 calculation were performed using GraphPad Prism.

[7] = Aqueous solubility (pH 7.4); format: physicochemical
Source text: as §1

[8] = Human liver microsome stability; format: in vitro ADME; settings: human liver microsomes; read-out: HLM CLint
Source text: as §1

P. falciparum 7G8 = assay: Multidrug-resistant parasite viability assay (SYBR green), 7G8; format: cell-based; settings: Plasmodium falciparum, 7G8, 72 h, read-out: multidrug resistant P. falciparum strains EC50 (SD) 7G8
Description: as §3

[9] = tested on: P. falciparum Dd2 strain with 2.8-fold amplification in PfATP4; assay: 'compound 49' resistant parasite viability assay (LDH), Dd2 2.8 CNV; format: cell-based; settings: Plasmodium falciparum, DD2, 72 h, read-out: Dd2^2.8 CNV EC50 (SD)
Description: as §2

[10] = tested on: P. falciparum Dd2 parental strain; assay: PfATP4 drug resistant parasite viability assay (LDH), Dd2 parental; format: cell-based; settings: Plasmodium falciparum, DD2, 72 h, read-out: Dd2^parental EC50 (SD)
Description: as §2

[11] = aqueous medium at pH 7.4, pH 7.4, aqueous buffer

COc1cc(F)c2c(c1)NC(C)(C(=O)Nc1cncc(Cl)c1)N(C)C2=O (centres unmarked) [Compound 36, N‐(5‐Chloropyridin‐3‐yl)‐5‐fluoro‐7‐methoxy‐2,3‐dimethyl‐4‐oxo‐1,2,3,4‐tetrahydroquinazoline‐2‐carboxamide]
hepatocyte CLint (Rat hepatocyte stability): 8 µL/min/1e6 cells
EC50 [1]: 41 nM
EC50 (P. falciparum Dd2): 13 nM
EC50 [2]: 100 nM
EC50 ([3]; 3D7, SYBR green, 72 h): 10 nM
CC50 at 48 h [4]: > 40000 nM
EC50 (P. falciparum W2^mef): 10 nM
EC50 [5]: 43 nM
EC50 [6]: 110 nM
solubility [7, 11]: 4 µM (≈ 1.52 µg/mL)
microsomal CLint [8]: 34 µL/min/mg
EC50 (P. falciparum 7G8): 31 nM
EC50 [9]: 56 nM
EC50 [10]: 32 nM

CN1C(=O)c2ccc(-n3cccn3)cc2NC1(C)C(=O)Nc1cncc(Cl)c1 (centres unmarked) [Compound 33, N‐(5‐Chloropyridin‐3‐yl)‐2,3‐dimethyl‐4‐oxo‐7‐(1H‐pyrazol‐1‐yl)‐1,2,3,4‐tetrahydroquinazoline‐2‐carboxamide]
hepatocyte CLint (Rat hepatocyte stability): 14 µL/min/1e6 cells
EC50 [1]: 537 nM
fold less potent against PfATP4^G358S strain relative to the Dd2 parental line ([1]; ratio of EC50s): 7 fold
EC50 (P. falciparum Dd2): 46 nM
EC50 [2]: 584 nM
EC50 ([3]; 3D7, 72 h): 45 nM
CC50 at 48 h [4]: > 40000 nM
EC50 (P. falciparum W2^mef): 39 nM
EC50 [5]: 126 nM
EC50 [6]: 460 nM
solubility [7, 11]: 2.6 µM (≈ 1.03 µg/mL)
microsomal CLint [8]: 37 µL/min/mg
EC50 (P. falciparum 7G8): 101 nM
EC50 [9]: 124 nM
EC50 [10]: 73 nM

CN1C(=O)c2ccc(Cl)cc2NC1(C)C(=O)Nc1cncc(Cl)c1 (centres unmarked) [Compound 14, 7‐Chloro‐N‐(5‐chloro‐3‐pyridyl)‐2,3‐dimethyl‐4‐oxo‐1H‐quinazoline‐2‐carboxamide]
hepatocyte CLint (Rat hepatocyte stability): 25 µL/min/1e6 cells
EC50 [1]: 61 nM
EC50 (P. falciparum Dd2): 19 nM
EC50 [2]: 160 nM
EC50 ([3]; 3D7, SYBR green, 72 h): 16 nM
CC50 at 48 h [4]: > 40000 nM
EC50 (P. falciparum W2^mef): 17 nM
EC50 [5]: 55 nM
EC50 [6]: 130 nM
solubility ([7]; aqueous medium (pH 7.4; buffer not named), pH 7.4, aqueous buffer): 5.2 µM (≈ 1.9 µg/mL)
solubility ([7]; aqueous medium at pH 7.4 (buffer not named), pH 7.4, aqueous buffer): < 5.2 µM
microsomal CLint [8]: 60 µL/min/mg
EC50 (P. falciparum 7G8): 43 nM
EC50 [9]: 61 nM
EC50 [10]: 50 nM
